How the values were obtained:
Assay in all cases: scanMAX KINOMEscan (Eurofins)
Format in all cases: binding
MAP4K4 = MAP4K4 (Homo sapiens, UniProt O95819); conditions: 1000 nM, read-out: Percent Control
From the text: (§1) Supplement cb5c00097_si_002.xlsx, sheet "Table S6 (Eurofins Selectivity)" | column: Percent Control

WNK3 = WNK3 (Homo sapiens, UniProt Q9BYP7); conditions: 1000 nM, read-out: Percent Control
From the text: as §1

NIM1 = NIM1 (Homo sapiens, UniProt Q8IY84); conditions: compound concentration 100 nM; Entrez MGC42105; read-out: Percent Control
From the text: as §1

HUNK = HUNK (Homo sapiens, UniProt P57058); conditions: read-out: Percent Control
From the text: as §1

TRKB = TRKB (Homo sapiens, UniProt Q16620); conditions: 1000 nM, read-out: Percent Control
From the text: as §1

AKT3 = AKT3 (Homo sapiens, UniProt Q9Y243); conditions: read-out: Percent Control
From the text: as §1

MARK1 = MARK1 (Homo sapiens, UniProt Q9P0L2); conditions: compound concentration 100 nM; Entrez MARK1; read-out: Percent Control
From the text: as §1

STK39 = STK39 (Homo sapiens, UniProt Q9UEW8); conditions: 1000 nM, read-out: Percent Control
From the text: as §1

[1] = target: TYK2(JH1domain-catalytic) (Homo sapiens, UniProt P29597); conditions: 1000 nM, read-out: Percent Control
From the text: as §1

SNRK = SNRK (Homo sapiens, UniProt Q9NRH2); conditions: compound concentration 100 nM; Entrez SNRK; read-out: Percent Control
From the text: as §1

MEK4 = MEK4 (Homo sapiens, UniProt P45985); conditions: compound concentration 100 nM; Entrez MAP2K4; read-out: Percent Control
From the text: as §1

CDK3 = CDK3 (Homo sapiens, UniProt Q00526); conditions: 1000 nM, read-out: Percent Control
From the text: as §1

EPHA5 = EPHA5 (Homo sapiens, UniProt P54756); conditions: 1000 nM, read-out: Percent Control
From the text: as §1

CDK4-cyclinD3 = CDK4-cyclinD3 (Homo sapiens, UniProt P11802); conditions: 1000 nM, read-out: Percent Control
From the text: as §1

CDC2L1 = CDC2L1 (Homo sapiens, UniProt P21127); conditions: 1000 nM, read-out: Percent Control
From the text: as §1

CSNK1A1L = CSNK1A1L (Homo sapiens, UniProt Q8N752); conditions: 1000 nM, read-out: Percent Control
From the text: as §1

MYLK = MYLK (Homo sapiens, UniProt Q15746); conditions: 1000 nM, read-out: Percent Control
From the text: as §1

AKT2 = AKT2 (Homo sapiens, UniProt P31751); conditions: read-out: Percent Control
From the text: as §1

KIT-autoinhibited = KIT-autoinhibited (Homo sapiens, UniProt P10721); conditions: 1000 nM, read-out: Percent Control
From the text: as §1

PCTK3 = PCTK3 (Homo sapiens, UniProt Q07002); conditions: 1000 nM, read-out: Percent Control
From the text: as §1

MAPKAPK5 = MAPKAPK5 (Homo sapiens, UniProt Q8IW41); conditions: compound concentration 100 nM; Entrez MAPKAPK5; read-out: Percent Control
From the text: as §1

PRKCI = PRKCI (Homo sapiens, UniProt P41743); conditions: 1000 nM, read-out: Percent Control
From the text: as §1

CDK8 = CDK8 (Homo sapiens, UniProt P49336); conditions: 1000 nM, read-out: Percent Control
From the text: as §1

CDKL5 = CDKL5 (Homo sapiens, UniProt O76039); conditions: read-out: Percent Control
From the text: as §1

LZK = LZK (Homo sapiens, UniProt O43283); conditions: 1000 nM, read-out: Percent Control
From the text: as §1

NLK = NLK (Homo sapiens, UniProt Q9UBE8); conditions: 1000 nM, read-out: Percent Control
From the text: as §1

AAK1 = AAK1 (Homo sapiens, UniProt Q2M2I8); conditions: 1000 nM, read-out: Percent Control
From the text: as §1

PHKG1 = PHKG1 (Homo sapiens, UniProt Q16816); conditions: 1000 nM, read-out: Percent Control
From the text: as §1

CTK = CTK (Homo sapiens, UniProt P42679); conditions: 1000 nM, read-out: Percent Control
From the text: as §1

SRC = SRC (Homo sapiens, UniProt P12931); conditions: compound concentration 100 nM; Entrez SRC; read-out: Percent Control
From the text: as §1

BMPR1A = BMPR1A (Homo sapiens, UniProt P36894); conditions: 1000 nM, read-out: Percent Control
From the text: as §1

MRCKA = MRCKA (Homo sapiens, UniProt Q5VT25); conditions: 1000 nM, read-out: Percent Control
From the text: as §1

EIF2AK1 = EIF2AK1 (Homo sapiens, UniProt Q9BQI3); conditions: 1000 nM, read-out: Percent Control
From the text: as §1

HIPK4 = HIPK4 (Homo sapiens, UniProt Q8NE63); conditions: 1000 nM, read-out: Percent Control
From the text: as §1

HIPK1 = HIPK1 (Homo sapiens, UniProt Q86Z02); conditions: 1000 nM, read-out: Percent Control
From the text: as §1

CSK = CSK (Homo sapiens, UniProt P41240); conditions: 1000 nM, read-out: Percent Control
From the text: as §1

DRAK1 = DRAK1 (Homo sapiens, UniProt Q9UEE5); conditions: 1000 nM, read-out: Percent Control
From the text: as §1

AKT3, sequence (Q9Y243 whole entry): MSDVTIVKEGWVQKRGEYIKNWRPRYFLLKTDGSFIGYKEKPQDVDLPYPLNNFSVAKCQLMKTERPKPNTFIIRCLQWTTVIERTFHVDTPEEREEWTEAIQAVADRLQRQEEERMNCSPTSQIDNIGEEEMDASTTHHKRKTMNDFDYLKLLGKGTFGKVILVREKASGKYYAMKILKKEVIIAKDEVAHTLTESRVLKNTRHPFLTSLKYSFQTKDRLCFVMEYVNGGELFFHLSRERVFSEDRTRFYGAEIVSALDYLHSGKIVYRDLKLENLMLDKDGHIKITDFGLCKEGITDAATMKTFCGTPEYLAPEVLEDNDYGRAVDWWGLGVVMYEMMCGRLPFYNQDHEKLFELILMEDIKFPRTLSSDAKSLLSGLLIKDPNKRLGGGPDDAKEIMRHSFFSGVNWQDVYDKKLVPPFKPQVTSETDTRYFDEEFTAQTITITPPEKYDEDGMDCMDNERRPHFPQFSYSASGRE
HUNK, sequence (P57058 whole entry): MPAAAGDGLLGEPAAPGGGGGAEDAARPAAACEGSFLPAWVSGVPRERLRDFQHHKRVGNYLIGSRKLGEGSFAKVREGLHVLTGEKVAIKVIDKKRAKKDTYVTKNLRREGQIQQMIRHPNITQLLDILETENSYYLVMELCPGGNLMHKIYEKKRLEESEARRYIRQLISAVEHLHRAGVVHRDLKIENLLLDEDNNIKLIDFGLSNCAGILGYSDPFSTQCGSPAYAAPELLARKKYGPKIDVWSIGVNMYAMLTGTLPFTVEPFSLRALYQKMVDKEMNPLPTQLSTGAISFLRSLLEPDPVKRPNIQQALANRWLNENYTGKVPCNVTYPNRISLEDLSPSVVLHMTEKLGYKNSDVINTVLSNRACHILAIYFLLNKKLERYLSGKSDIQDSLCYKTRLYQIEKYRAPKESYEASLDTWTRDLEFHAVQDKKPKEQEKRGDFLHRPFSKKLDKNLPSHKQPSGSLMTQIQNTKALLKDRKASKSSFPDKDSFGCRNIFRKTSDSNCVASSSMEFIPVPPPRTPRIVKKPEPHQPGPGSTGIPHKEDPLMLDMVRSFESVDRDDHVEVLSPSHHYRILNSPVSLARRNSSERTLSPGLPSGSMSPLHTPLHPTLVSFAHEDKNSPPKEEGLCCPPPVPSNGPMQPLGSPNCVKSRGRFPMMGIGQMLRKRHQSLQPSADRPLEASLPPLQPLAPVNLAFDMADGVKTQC
CDKL5, sequence (O76039 whole entry): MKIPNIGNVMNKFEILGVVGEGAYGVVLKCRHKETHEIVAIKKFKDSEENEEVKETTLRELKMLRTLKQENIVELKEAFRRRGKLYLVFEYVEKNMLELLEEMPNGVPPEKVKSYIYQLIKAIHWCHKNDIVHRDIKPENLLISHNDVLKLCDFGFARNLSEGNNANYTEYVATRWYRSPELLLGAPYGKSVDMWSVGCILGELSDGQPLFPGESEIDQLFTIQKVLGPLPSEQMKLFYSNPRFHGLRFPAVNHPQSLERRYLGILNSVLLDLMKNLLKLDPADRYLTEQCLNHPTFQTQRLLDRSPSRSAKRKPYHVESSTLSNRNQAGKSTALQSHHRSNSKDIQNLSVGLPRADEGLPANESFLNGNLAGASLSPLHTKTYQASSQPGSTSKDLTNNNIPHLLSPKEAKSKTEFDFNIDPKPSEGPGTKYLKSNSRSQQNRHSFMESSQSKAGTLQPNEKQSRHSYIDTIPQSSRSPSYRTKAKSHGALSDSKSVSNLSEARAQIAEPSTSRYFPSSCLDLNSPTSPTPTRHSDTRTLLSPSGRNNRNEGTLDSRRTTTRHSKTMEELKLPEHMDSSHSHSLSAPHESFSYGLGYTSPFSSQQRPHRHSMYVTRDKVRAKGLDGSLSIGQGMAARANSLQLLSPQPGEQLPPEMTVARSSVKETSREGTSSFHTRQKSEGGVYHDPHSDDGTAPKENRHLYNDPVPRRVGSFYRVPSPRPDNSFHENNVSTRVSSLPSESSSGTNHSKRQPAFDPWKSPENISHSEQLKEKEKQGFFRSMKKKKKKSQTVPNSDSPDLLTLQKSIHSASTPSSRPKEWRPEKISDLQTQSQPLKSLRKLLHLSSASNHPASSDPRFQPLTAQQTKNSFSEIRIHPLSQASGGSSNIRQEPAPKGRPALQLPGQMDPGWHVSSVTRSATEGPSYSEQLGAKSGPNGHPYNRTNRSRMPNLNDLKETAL
AKT2, sequence (P31751 whole entry): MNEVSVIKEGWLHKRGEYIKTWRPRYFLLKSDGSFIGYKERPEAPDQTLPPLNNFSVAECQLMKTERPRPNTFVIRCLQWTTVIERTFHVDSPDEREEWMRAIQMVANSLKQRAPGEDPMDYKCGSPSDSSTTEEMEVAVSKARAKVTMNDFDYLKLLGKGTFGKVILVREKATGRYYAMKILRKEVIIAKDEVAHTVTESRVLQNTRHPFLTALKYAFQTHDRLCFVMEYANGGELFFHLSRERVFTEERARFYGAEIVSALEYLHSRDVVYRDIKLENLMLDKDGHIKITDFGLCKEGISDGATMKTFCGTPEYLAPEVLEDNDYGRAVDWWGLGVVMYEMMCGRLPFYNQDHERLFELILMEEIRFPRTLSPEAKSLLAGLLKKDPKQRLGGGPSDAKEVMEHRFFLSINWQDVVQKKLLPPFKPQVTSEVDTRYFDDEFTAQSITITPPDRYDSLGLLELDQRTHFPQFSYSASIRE
EIF2AK1, sequence (Q9BQI3 whole entry): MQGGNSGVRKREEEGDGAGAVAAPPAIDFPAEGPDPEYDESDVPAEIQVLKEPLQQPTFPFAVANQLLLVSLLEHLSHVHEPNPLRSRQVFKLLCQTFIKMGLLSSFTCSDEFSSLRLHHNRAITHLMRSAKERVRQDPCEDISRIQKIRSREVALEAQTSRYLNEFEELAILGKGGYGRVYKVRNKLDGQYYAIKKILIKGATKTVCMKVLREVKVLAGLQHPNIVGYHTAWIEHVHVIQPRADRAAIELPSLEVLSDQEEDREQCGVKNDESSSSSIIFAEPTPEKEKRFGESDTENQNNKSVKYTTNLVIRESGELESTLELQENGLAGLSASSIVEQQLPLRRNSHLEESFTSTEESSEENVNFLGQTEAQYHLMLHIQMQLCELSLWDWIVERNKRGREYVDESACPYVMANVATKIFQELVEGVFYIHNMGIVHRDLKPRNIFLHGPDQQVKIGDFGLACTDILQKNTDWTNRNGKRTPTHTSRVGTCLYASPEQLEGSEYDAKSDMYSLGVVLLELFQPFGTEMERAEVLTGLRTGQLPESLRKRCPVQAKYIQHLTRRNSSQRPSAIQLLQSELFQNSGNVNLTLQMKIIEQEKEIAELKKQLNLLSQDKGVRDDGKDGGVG
MARK1, sequence (Q9P0L2 whole entry): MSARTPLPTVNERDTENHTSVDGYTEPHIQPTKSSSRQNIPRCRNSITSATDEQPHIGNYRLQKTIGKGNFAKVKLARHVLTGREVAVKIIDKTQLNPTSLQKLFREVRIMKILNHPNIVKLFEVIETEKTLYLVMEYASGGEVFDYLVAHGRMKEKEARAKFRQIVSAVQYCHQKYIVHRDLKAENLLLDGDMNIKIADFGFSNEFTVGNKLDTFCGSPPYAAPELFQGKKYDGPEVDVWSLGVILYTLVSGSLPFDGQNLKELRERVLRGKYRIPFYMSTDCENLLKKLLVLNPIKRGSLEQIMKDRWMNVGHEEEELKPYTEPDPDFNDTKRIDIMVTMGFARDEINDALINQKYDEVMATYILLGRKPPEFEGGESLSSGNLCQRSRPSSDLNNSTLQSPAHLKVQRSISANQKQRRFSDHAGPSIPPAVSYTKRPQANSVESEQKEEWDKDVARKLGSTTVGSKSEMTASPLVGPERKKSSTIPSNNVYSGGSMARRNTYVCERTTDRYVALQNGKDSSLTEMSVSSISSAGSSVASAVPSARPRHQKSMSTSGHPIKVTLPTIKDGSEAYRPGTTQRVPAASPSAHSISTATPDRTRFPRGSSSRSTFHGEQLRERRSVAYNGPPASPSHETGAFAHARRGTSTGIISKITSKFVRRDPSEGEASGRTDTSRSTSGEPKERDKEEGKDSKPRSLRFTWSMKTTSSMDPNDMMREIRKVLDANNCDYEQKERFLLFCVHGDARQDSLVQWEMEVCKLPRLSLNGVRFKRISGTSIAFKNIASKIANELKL
TRKB, sequence (Q16620 32-822): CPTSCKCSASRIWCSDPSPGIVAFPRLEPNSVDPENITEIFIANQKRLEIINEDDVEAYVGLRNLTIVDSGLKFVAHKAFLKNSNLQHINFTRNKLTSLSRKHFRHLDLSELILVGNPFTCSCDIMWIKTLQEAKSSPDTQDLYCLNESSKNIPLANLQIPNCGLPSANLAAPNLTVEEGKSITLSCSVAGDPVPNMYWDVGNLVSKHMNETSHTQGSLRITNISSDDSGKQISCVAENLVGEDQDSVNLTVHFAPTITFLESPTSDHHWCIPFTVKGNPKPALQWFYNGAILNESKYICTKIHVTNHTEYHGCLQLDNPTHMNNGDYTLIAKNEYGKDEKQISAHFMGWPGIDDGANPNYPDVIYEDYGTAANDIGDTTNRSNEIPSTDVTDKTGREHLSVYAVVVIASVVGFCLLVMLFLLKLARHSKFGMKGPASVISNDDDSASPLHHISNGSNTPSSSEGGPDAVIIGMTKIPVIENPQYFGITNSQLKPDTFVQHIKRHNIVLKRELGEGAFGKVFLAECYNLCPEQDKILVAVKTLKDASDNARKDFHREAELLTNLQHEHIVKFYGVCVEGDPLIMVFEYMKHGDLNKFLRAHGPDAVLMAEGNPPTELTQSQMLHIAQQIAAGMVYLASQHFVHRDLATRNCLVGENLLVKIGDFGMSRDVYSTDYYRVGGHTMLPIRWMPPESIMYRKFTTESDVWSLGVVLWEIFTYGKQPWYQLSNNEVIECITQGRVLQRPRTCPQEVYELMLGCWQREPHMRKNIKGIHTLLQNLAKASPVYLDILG

CN1C(=O)[C@@H](N2CCc3c(nn(Cc4ccccc4)c3C(N)=O)C2=O)COc2cc(Cl)ccc21 [Compound 10, (S)-2-benzyl-6-(8-chloro-5-methyl-4-oxo-2,3,4,5-tetrahydrobenzo[b][1,4]oxazepin-3-yl)-7-oxo-4,5,6,7-tetrahydro-2H-pyrazolo[3,4-c]pyridine-3-carboxamide]
remaining binding at 1 µM (MAP4K4): 94%
remaining binding at 1 µM (WNK3): 69%
remaining binding at 0.1 µM (NIM1): 99%
remaining binding at 1 µM (HUNK; 1000 nM): 100%
remaining binding at 0.1 µM (HUNK; compound concentration 100 nM, Entrez HUNK): 82%
remaining binding at 1 µM (TRKB): 76%
remaining binding at 1 µM (AKT3; 1000 nM): 100%
remaining binding at 0.1 µM (AKT3; compound concentration 100 nM, Entrez AKT3): 100%
remaining binding at 0.1 µM (MARK1): 76%
remaining binding at 1 µM (STK39): 84%
remaining binding at 1 µM [1]: 74%
remaining binding at 0.1 µM (SNRK): 99%
remaining binding at 0.1 µM (MEK4): 100%
remaining binding at 1 µM (CDK3): 87%
remaining binding at 1 µM (EPHA5): 97%
remaining binding at 1 µM (CDK4-cyclinD3): 95%
remaining binding at 1 µM (CDC2L1): 83%
remaining binding at 1 µM (CSNK1A1L): 85%
remaining binding at 1 µM (MYLK): 86%
remaining binding at 1 µM (AKT2; 1000 nM): 100%
remaining binding at 0.1 µM (AKT2; compound concentration 100 nM, Entrez AKT2): 90%
remaining binding at 1 µM (KIT-autoinhibited): 97%
remaining binding at 1 µM (PCTK3): 88%
remaining binding at 0.1 µM (MAPKAPK5): 96%
remaining binding at 1 µM (PRKCI): 80%
remaining binding at 1 µM (CDK8): 92%
remaining binding at 1 µM (CDKL5; 1000 nM): 100%
remaining binding at 0.1 µM (CDKL5; compound concentration 100 nM, Entrez CDKL5): 100%
remaining binding at 1 µM (LZK): 67%
remaining binding at 1 µM (NLK): 98%
remaining binding at 1 µM (AAK1): 83%
remaining binding at 1 µM (PHKG1): 93%
remaining binding at 1 µM (CTK): 97%
remaining binding at 0.1 µM (SRC): 85%
remaining binding at 1 µM (BMPR1A): 80%
remaining binding at 1 µM (MRCKA): 88%
remaining binding at 1 µM (EIF2AK1): 94%
remaining binding at 1 µM (HIPK4): 87%
remaining binding at 1 µM (HIPK1): 93%
remaining binding at 1 µM (CSK): 97%
remaining binding at 1 µM (DRAK1): 91%
